Two compounds from patent US20230181519A1, “Compositions And Methods For Treating Nicotine-Related Disorders And Symptoms Using Dihydromyricetin” (priority 2021, published 2023) can be followed below.

“Also recorded” adds a separate entry of the source.

For experiment [1], the system named is VTA DA neurons. The experiment is described as follows: VTA dopamine neuronal firing in VTA slices (cell-attached recording). Format: cell-based, mouse. Here is the method:
In this example, the effects of DHM on mouse ventral tegmental area (“VTA”) dopamine (“DPA”) neuronal firing in slices were measured.

For experiment [2], the system named is VTA DA neurons. The experiment can be described thus: VTA DA neuronal firing in anesthetized mice (in vivo recording). The conditions noted are these: i.v. An excerpt:
Part C is after in vivo recording. The recording site was dyed using blue-sky dye, and confirmed by cutting brain sections that contained VTA.

For another experiment, the system named is C57BL/J mice. The experiment is described as follows: NIC-induced behavioral sensitization (local motor activity). In kind it is in vivo. How it is done:
In this example, the effects of DHM on NIC-induced behavioral sensitization in mice were measured.
C57BL/J mice were repetitively treated with NIC (0.5 mg/kg, i.p.), and the local motor activities were measured.

In another experiment the target is T1, α4β2-nAChRs (Homo sapiens, UniProt P17787+P43681).
T1 construct: expressed in transfected cells; host or cells: human SH-EP1 cells
T1 sequence (P43681 29-627 limits assumed): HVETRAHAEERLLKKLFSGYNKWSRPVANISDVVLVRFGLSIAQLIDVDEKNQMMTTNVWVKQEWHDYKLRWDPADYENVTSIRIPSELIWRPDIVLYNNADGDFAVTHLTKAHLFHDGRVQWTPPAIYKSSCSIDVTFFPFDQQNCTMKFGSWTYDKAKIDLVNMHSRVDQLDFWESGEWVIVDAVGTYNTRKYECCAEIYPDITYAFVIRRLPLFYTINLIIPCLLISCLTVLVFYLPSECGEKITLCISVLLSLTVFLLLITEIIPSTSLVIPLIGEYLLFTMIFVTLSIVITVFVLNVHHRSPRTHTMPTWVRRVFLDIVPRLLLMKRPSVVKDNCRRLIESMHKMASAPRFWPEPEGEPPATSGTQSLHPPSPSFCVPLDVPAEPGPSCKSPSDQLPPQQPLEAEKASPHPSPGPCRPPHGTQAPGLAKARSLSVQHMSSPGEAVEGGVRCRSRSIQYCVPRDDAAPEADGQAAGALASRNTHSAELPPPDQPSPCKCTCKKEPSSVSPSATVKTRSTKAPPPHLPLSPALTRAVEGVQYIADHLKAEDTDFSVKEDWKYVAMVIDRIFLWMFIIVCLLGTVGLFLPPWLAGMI
T1 sequence (P17787 26-502): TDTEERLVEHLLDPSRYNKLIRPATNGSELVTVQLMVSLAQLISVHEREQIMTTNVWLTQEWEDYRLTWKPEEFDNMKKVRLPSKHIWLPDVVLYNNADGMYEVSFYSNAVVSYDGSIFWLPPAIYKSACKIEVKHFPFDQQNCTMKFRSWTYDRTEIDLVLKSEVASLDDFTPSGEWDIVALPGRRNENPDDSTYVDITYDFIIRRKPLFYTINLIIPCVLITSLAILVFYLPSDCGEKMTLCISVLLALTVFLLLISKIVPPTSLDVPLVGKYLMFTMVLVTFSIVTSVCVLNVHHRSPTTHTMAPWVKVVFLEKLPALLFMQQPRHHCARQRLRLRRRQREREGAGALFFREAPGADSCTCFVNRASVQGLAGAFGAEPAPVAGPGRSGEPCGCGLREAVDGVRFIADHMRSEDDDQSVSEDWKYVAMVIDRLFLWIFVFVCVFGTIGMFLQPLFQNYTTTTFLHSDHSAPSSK
The experiment is described as follows: ACh-induced whole-cell currents of transfected α4β2-nAChRs in SH-EP1 cells. Format: cell-based. The following applies: DHM co-applied at different concentrations, SH-EP1 cells (FIG. 1). Here is the method: In this example, the effects of DHM on transfected α4β2-nAChRs in human SH-EP1 cells (a model system to study human acetylcholine (“ACh”) receptors) were measured. Traces of ACh-induced whole-cell currents co-applied with different concentrations of DHM were created and examined.

In experiment [3] the test system is NIC-induced conditioned-place preference. The experiment can be described thus: NIC-induced conditioned-place preference (CPP). Format: in vivo. Here is the method:
In this example, the effects of DHM on NIC-induced conditioned-place preference (“CCP”) were measured.
Part A is the CPP performance protocol.

Setting [4] is: NIC 0.5 mg/kg, anesthetized mice (FIG. 3 B).
Where [5] appears, read: NIC 0.5 mg/kg, i.p., repetitive, C57BL/J mice (FIG. 6).

With `CN1CCCC1c1cccnc1` (stereo not shown) [NIC, nicotine], in the experiment on VTA DA neurons [1] (VTA slices, cell-attached recording (FIG. 2 A, B)), the “AP firing rate of DA neurons, effect of bath-applied nicotine” value is recorded as “enhancement of AP firing rate”. Moreover, the “DA neuronal firing, time-frequency relationship after NIC” value in the experiment with VTA DA neurons [2] (NIC 0.5 mg/kg, anesthetized mice (FIG. 3 A)) is given as “an initial reduction following by a long-lasting increase”. In the experiment on VTA DA neurons [2] (setting [4]), the “AP firing rate after systemic injection of NIC” value is on record as “enhanced”, the “bursting firing after systemic injection of NIC” value is reported as “enhanced” and the “slow oscillations (SO) after systemic injection of NIC” value is given as “reduction”. For the same compound, in the experiment with C57BL/J mice (setting [5]), the “motor activity (total move distance) with repetitive injections of NIC” value was “increased”; the “motor activity after withdrawal at 5 and 10 days” value was “still maintained at a high level”.
For `O=C1c2c(O)cc(O)cc2O[C@H](c2cc(O)c(O)c(O)c2)[C@H]1O` [DHM, dihydromyricetin], the a4b2-nAChR-mediated whole-cell currents result on α4β2-nAChRs is reported as “inhibited”. In addition, the “NIC-induced enhancement of AP firing rate, effect of DHM” value with VTA DA neurons [1] (VTA slices (FIG. 2 C, D)) was “abolished; also recorded: prevented”. In the experiment with VTA DA neurons [1] (VTA slices, different concentrations of DHM (FIG. 2 D)), the “DA neuron firing rate, effect of DHM itself” value is on record as “reduced DA firing”. The “DA neuronal firing rate, effect of DHM” value in the experiment with VTA DA neurons [2] (DHM 1 and 10 mg/kg, anesthetized mice (FIG. 4)) was “reduced”. Moreover, the “NIC-induced AP firing increase, effect of DHM” value in the experiment with VTA DA neurons [2] (DHM 1 and 10 mg/kg, anesthetized mice (FIG. 4 D)) is “abolished”. For the same compound, the “NIC-induced CPP, overall” value in experiment [3] (FIG. 5) is given as “significantly reduces; also recorded: inhibits”. Besides, the “NIC-induced CPP after withdrawal 5 days of NIC (day 19)” value in experiment [3] (FIG. 5 B, C) was “abolished”. Besides, in experiment [3] (FIG. 5 C), the “NIC-induced CPP at test day (day 13)” value was “abolished”. For the same compound, in the experiment with C57BL/J mice (NIC group vs NIC+DHM group (FIG. 7)), the “NIC-induced behavioral sensitization (local motor activity), effect of DHM” value is “significantly reduced; also recorded: inhibits”.
